Type in all cases: cell-based
For assay [1], the target named is T1, EGFR wildtype, endogenous (Homo sapiens, UniProt P00533).
T1 construct: A549 (EGFR wildtype, endogenous); host or cells: A549
The experiment in a line: pEGFR Y1068 ELISA assay, A549 cells.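 Also: sandwich ELISA of phospho-EGFR Tyr1068 in cell lysates, cells exposed to compound for 2 h before EGF stimulation, 11-point threefold dilution series run in duplicate.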 Particulars: full serum media, stimulated 10 min with EGF (40 ng/mL), read-out: pEGFRY1068 ELISAA549 IC50. A general note: ELISA stands for enzyme-linked immunosorbent assay.

Another assay has as its target EGFR L858R (Homo sapiens, UniProt P00533, L858R). The experiment in a line: pEGFR Y1068 ELISA assay, NIH3T3/EGFR_L858R cells.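 Also: sandwich ELISA of phospho-EGFR Tyr1068 in lysates of stably transfected NIH/3T3 pools after 2 h compound exposure at 37 °C, 11-point threefold dilution series run in duplicate.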 Particulars: 3T3 cell line, 2 hrs compound treatment; read-out: pEGFRY1068 ELISA3T3 L858R IC50.
In a further assay the target is EGFR L858R+T790M (Homo sapiens, UniProt P00533, L858R/T790M). The experiment in a line: pEGFR Y1068 ELISA assay, NIH3T3/EGFR_L858R+T790M cells.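 Also: sandwich ELISA of EGFR phosphorylated at Tyr1068 in lysates of stably transfected NIH/3T3 cells, 11-point threefold dilution series run in duplicate.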 Particulars: 3T3 cell line, 2 hrs compound treatment; read-out: pEGFRY1068 ELISA3T3T790M—L858R IC50.
In another assay the target is EGFR E746-A750 deletion (Homo sapiens, UniProt P00533, DEL746-750). The experiment in a line: pEGFR Y1068 ELISA assay, NIH3T3/EGFR_E746-A750 deletion cells.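 Also: sandwich ELISA on cell lysates detecting phospho-EGFR at Tyr1068, compounds run as 11-point threefold dilution series in duplicate, IC50 from inhibition of this phosphorylation signal.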 The following applies: 3T3 Del cells, 2 hrs compound treatment; read-out: ELISA7E 3T3 Del IC50.

In general, IC50 refers to the point on the concentration scale where inhibition reaches its midpoint.

EGFR L858R+T790M, sequence (P00533 25-1210 T790M/L858R): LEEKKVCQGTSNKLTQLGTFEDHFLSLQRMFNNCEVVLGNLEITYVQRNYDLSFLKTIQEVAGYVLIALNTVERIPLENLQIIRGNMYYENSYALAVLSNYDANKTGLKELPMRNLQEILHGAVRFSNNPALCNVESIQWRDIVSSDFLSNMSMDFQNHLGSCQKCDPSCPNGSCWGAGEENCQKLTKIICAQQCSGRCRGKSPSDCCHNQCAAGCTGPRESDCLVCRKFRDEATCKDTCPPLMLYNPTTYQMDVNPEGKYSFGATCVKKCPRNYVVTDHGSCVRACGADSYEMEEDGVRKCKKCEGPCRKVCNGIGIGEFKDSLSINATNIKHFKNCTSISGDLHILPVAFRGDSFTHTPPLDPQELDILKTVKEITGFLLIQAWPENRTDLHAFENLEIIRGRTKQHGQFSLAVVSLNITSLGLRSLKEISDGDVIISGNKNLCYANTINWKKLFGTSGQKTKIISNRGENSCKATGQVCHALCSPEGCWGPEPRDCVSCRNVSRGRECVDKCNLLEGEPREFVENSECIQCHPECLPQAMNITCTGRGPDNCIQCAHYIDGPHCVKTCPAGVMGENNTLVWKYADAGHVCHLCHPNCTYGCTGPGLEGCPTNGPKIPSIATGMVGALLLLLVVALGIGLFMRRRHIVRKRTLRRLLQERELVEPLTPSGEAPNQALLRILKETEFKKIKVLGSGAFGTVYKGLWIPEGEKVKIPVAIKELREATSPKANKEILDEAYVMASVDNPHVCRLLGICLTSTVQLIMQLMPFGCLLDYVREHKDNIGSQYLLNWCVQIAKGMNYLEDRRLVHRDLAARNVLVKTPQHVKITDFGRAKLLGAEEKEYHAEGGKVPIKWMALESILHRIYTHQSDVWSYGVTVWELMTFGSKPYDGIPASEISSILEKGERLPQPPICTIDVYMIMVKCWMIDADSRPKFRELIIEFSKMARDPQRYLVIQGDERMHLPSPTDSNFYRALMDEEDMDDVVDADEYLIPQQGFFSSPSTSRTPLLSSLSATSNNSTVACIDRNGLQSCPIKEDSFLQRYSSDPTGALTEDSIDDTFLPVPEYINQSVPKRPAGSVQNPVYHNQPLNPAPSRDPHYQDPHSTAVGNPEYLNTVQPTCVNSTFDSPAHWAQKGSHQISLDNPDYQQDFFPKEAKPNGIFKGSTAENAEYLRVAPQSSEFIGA
T1 sequence (P00533 25-1210): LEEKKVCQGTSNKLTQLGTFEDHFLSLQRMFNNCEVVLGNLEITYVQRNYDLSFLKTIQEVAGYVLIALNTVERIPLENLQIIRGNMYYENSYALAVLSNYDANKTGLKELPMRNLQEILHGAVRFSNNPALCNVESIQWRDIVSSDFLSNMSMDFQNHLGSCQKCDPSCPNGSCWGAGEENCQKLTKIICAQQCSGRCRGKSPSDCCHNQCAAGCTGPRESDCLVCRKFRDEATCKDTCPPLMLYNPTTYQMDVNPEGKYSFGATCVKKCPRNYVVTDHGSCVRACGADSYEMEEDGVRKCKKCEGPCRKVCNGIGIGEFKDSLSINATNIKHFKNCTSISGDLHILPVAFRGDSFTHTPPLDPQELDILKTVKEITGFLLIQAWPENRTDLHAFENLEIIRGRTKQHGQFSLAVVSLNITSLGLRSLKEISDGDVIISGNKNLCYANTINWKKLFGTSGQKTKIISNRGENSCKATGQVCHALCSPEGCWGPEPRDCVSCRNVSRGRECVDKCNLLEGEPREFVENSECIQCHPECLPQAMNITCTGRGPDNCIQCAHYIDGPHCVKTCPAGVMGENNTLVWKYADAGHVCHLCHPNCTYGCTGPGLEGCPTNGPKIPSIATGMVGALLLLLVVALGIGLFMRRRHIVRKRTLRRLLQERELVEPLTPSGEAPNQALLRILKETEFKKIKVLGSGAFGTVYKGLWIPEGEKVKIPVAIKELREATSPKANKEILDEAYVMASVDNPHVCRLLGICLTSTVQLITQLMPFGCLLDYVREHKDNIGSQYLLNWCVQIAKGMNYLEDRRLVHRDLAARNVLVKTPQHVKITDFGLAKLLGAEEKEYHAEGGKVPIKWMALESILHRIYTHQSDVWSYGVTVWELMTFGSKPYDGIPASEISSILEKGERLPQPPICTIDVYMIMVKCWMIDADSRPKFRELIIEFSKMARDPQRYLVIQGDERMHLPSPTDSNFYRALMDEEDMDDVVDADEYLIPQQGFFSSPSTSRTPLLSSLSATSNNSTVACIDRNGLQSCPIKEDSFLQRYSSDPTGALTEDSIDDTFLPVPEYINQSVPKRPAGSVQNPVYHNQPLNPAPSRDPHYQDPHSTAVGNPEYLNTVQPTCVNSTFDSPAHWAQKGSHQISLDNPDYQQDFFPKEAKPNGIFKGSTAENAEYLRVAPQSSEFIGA
EGFR L858R, sequence (P00533 25-1210 L858R): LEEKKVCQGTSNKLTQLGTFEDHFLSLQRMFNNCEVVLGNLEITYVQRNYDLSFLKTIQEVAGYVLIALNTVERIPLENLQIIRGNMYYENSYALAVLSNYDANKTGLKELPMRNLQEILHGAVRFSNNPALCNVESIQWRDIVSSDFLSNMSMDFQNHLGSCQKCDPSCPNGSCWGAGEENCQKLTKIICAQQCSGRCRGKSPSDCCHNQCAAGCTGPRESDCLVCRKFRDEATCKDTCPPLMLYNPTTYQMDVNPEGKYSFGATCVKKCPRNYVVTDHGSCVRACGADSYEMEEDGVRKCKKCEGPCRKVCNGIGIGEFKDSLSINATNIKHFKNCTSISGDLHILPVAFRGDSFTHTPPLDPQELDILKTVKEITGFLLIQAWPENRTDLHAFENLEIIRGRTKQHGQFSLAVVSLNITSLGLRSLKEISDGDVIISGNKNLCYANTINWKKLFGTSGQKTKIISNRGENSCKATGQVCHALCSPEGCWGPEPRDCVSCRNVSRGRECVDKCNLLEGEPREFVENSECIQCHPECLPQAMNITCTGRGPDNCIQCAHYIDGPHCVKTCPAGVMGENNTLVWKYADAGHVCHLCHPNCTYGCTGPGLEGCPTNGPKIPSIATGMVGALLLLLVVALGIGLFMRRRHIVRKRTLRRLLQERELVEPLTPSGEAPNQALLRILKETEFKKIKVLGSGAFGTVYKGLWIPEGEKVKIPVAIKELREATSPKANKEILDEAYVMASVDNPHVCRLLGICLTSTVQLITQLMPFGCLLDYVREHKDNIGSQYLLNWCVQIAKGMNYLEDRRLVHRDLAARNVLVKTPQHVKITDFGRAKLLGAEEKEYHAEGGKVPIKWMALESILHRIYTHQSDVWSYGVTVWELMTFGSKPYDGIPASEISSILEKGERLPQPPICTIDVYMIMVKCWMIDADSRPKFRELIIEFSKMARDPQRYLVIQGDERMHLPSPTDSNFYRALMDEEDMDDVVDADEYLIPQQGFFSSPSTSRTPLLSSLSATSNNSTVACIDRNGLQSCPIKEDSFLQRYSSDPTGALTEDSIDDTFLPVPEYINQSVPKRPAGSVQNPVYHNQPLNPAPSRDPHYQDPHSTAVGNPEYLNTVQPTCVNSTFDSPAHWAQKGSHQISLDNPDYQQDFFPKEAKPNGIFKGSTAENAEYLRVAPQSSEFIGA
EGFR E746-A750 deletion, sequence (P00533 with tags, fused parts or gaps DEL746-750): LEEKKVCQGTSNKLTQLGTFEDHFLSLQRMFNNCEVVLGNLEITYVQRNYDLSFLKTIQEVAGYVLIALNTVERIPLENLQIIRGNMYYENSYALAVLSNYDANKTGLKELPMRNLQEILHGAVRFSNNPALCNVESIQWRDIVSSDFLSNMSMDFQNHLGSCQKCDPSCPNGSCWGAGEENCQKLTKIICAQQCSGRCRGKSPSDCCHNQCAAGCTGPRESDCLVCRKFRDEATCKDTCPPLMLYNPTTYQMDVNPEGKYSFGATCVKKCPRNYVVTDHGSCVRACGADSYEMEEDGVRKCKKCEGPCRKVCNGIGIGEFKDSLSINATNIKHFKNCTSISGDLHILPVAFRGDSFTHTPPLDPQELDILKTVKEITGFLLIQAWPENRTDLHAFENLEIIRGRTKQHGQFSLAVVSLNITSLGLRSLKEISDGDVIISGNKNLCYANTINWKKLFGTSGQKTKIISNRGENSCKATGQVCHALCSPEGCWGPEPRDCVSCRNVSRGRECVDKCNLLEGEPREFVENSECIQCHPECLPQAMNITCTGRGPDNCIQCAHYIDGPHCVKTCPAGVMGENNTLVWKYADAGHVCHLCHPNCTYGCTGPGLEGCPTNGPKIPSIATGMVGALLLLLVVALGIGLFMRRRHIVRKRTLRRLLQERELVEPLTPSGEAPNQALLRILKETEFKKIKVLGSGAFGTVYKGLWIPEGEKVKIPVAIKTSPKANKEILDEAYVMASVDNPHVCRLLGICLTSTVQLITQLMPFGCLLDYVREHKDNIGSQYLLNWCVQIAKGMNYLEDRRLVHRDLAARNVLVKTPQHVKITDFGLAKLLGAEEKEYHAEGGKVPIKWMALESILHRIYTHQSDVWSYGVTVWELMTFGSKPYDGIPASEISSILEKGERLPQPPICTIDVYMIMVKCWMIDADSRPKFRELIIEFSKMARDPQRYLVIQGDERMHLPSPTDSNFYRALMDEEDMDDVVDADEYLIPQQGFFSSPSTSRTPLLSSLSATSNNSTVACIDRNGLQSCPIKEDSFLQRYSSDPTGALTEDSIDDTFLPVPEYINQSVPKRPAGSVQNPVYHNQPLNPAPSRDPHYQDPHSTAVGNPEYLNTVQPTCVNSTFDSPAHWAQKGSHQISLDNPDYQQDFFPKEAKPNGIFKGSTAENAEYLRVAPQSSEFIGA

In the case of `C=CC(=O)N1C[C@@H](COc2nc(Nc3cnn(C)c3)nc3[nH]ccc23)[C@H](C)C1` (single isomer, unassigned) [Example 3], the IC50 in assay [1] turned out to be 9.06 µM; on EGFR L858R it was 0.733 µM; on EGFR L858R+T790M, 0.057 µM.
Regarding `C=CC(=O)N1C[C@H](COc2nc(Nc3cnn(C)c3)nc3[nH]ccc23)[C@@H](C)C1` (single isomer, unassigned) [Example 4], the IC50 in assay [1] is more than 10 µM; on EGFR L858R it was 0.547 µM; at EGFR L858R+T790M, 0.077 µM.
For `C=CC(=O)N1C[C@@H](CC)[C@H](COc2nc(Nc3cnn(C)c3)nc3[nH]ccc23)C1` (single isomer, unassigned) [Example 15], in that order: more than 10 µM, 0.834 µM and 0.182 µM.
As for `C=CC(=O)N[C@H]1C[C@@H](Oc2nc(Nc3cnn(C)c3)nc3[nH]cnc23)C1` (single isomer, unassigned) [Example 55], the IC50 on EGFR E746-A750 deletion is more than 10 µM.
The same measure, in the same setting: with `C=CC(=O)N[C@H]1C[C@H](Oc2nc(Nc3cnn(C)c3)nc3[nH]cnc23)C1` (single isomer, unassigned) [Example 56] the figure was more than 10 µM.
For `C=CC(=O)Nc1cccc(Oc2nc(Nc3ccn(C)n3)nc3[nH]cc(F)c23)c1` [Example 1, N-[3-({5-fluoro-2-[(1-methyl-1H-pyrazol-3-yl)amino]-7H-pyrrolo[2,3-d]pyrimidin-4-yl}oxy)phenyl]prop-2-enamide], the IC50 in assay [1] is more than 10 µM; on EGFR L858R, 0.585 µM; on EGFR L858R+T790M, 0.033 µM.
The matching figures for `C=CC(=O)N[C@H]1C[C@H](Nc2nc(Nc3cnn(C)c3)nc3[nH]ccc23)C1` [Example 6, N-[trans-3-({2-[(1-methyl-1H-pyrazol-4-yl)amino]-7H-pyrrolo[2,3-d]pyrimidin-4-yl}amino)cyclobutyl]prop-2-enamide]: more than 10 µM, more than 10 µM and more than 10 µM.
In the case of `C=CC(=O)Nc1cccc(Oc2nc(Nc3cnn(C4CCN(C)C4)c3)nc3[nH]cnc23)c1` (stereo not drawn) [Example 7, N-{3-[(2-{[1-(1-methylpyrrolidin-3-yl)-1H-pyrazol-4-yl]amino}-9H-purin-6-yl)oxy]phenyl}prop-2-enamide], the IC50 on EGFR E746-A750 deletion was 1.13 µM; in assay [1], more than 10 µM; at EGFR L858R, 1.12 µM; at EGFR L858R+T790M, 0.396 µM.
For `C=CC(=O)N[C@H]1C[C@H](Oc2nc(Nc3cnn(C)c3)nc3[nH]cc(C#N)c23)C1` [Example 14], the IC50 in assay [1] was more than 10 µM; at EGFR L858R, more than 10 µM; on EGFR L858R+T790M, 1.8 µM.
`C=CC(=O)N1CC(COc2nc(Nc3cnn(C)c3)nc3[nH]ccc23)C1` [Example 16]: the IC50 in assay [1] is more than 10 µM; on EGFR L858R it was 2.51 µM; at EGFR L858R+T790M it was 0.308 µM.
The matching figures for `C=CC(=O)N1CCO[C@@H](COc2nc(Nc3cnn(C)c3)nc3[nH]ccc23)C1` [Example 17]: more than 10 µM, 2.03 µM and 0.104 µM.
In the case of `C=CC(=O)N1CCO[C@H](COc2nc(Nc3cnn(C)c3)nc3[nH]ccc23)C1` [Example 18], the IC50 in assay [1] is more than 10 µM; at EGFR L858R, 1.5 µM; at EGFR L858R+T790M, 0.079 µM.
Regarding `C=CC(=O)N1CC[C@@H](Oc2nc(Nc3cnn(C)c3)nc3[nH]cc(C#N)c23)C1` [Example 20], the IC50 on EGFR E746-A750 deletion was 8.4 µM; in assay [1], more than 10 µM; on EGFR L858R, more than 10 µM; at EGFR L858R+T790M it was 1.82 µM.
As to `C=CC(=O)Nc1cccc(Oc2nc(Nc3cnn(C)c3C)nc3[nH]ccc23)c1` [Example 24], the IC50 in assay [1] was found to be 6.74 µM; on EGFR L858R, 0.275 µM; at EGFR L858R+T790M, 0.02 µM.
For `C=CC(=O)Nc1cccc(Oc2nc(Nc3cnn(CC(C)(C)O)c3)nc3[nH]ccc23)c1` [Example 25], in that order: more than 10 µM, 1.03 µM and 0.069 µM.
Take `C=CC(=O)Nc1cccc(Oc2nc(Nc3cc(C)nn3C)nc3[nH]ccc23)c1` [Example 26]: the half-maximal inhibitory concentration (IC50) amounted to 0.135 µM on EGFR E746-A750 deletion, 6.76 µM in assay [1], 0.177 µM at EGFR L858R and 0.021 µM at EGFR L858R+T790M.
For `C=CC(=O)N1CCc2c(Oc3nc(Nc4ccn(C)n4)nc4[nH]ccc34)cccc21` [Example 29], the IC50 at EGFR E746-A750 deletion turned out to be 0.116 µM.
Take `C=CC(=O)Nc1cccc(Oc2nc(Nc3cn(C)nc3C)nc3[nH]ccc23)c1` [Example 30]: the IC50 at EGFR E746-A750 deletion stood at 0.025 µM; in assay [1], 2.39 µM; at EGFR L858R, 0.091 µM; on EGFR L858R+T790M it was 0.009 µM.
The matching figures for `C=CC(=O)Nc1cccc(Oc2nc(Nc3cnn(C4CCN(C)CC4)c3)nc3[nH]ccc23)c1` [Example 33]: 0.027 µM, 2.21 µM, 0.12 µM and 0.02 µM.
`C=CC(=O)N1CCc2c(Oc3nc(Nc4cnn(C)c4)nc4[nH]cc(C#N)c34)cccc21` [Example 37]: the figures for the IC50 (in assay [1]; on EGFR L858R; on EGFR L858R+T790M) were more than 10 µM, 0.067 µM and 0.041 µM, respectively.
On to `C=CC(=O)N1CCc2c(Oc3nc(Nc4cnn(C)c4)nc4[nH]ccc34)cccc21` [Example 38], for which the IC50 in assay [1] is 5.9 µM; at EGFR L858R it was 0.09 µM; on EGFR L858R+T790M, 0.008 µM.
With `C=CC(=O)Nc1cccc(Oc2nc(Nc3cnn(C4CCOC4)c3)nc3[nH]ccc23)c1` (stereo not drawn) [Example 39], the IC50 amounted to 0.1 µM at EGFR E746-A750 deletion, 2.8 µM in assay [1], 0.19 µM on EGFR L858R and 0.015 µM at EGFR L858R+T790M.
Take `C=CC(=O)Nc1cccc(COc2nc(Nc3cnn(C)c3)nc3[nH]ccc23)c1` [Example 43]: the IC50 was more than 10 µM in assay [1], more than 10 µM on EGFR L858R and 5.34 µM at EGFR L858R+T790M.
In the case of `C=CS(=O)(=O)N1CCc2c(Oc3nc(Nc4cnn(C)c4)nc4[nH]ccc34)cccc21` [Example 44], the IC50 at EGFR E746-A750 deletion stood at 0.09 µM; in assay [1] it was 3.56 µM; at EGFR L858R it was 0.552 µM; at EGFR L858R+T790M, 0.025 µM.
Take `C=CC(=O)Nc1cccc(Oc2nc(Nc3cc(COC)nn3C)nc3[nH]ccc23)c1` [Example 45]: the IC50 in assay [1] was more than 10 µM; on EGFR L858R it was 0.7 µM; at EGFR L858R+T790M, 0.084 µM.
For `C=CC(=O)Nc1cccc(Oc2nc(Nc3cc(C4CC4)nn3C)nc3[nH]ccc23)c1` [Example 46], in that order: more than 10 µM, 0.495 µM and 0.08 µM.
`C=CC(=O)Nc1cccc(Oc2nc(Nc3cc(CC)nn3C)nc3[nH]ccc23)c1` [Example 47]: the IC50 on EGFR E746-A750 deletion was 0.317 µM; in assay [1], more than 10 µM; at EGFR L858R, 0.752 µM; at EGFR L858R+T790M it was 0.05 µM.
The matching figures for `C=CC(=O)Nc1cc(F)cc(Oc2nc(Nc3ccn(C)n3)nc3[nH]ccc23)c1` [Example 49]: 0.022 µM, 2.02 µM, 0.097 µM and 0.007 µM.
On to `C=CC(=O)Nc1cccc(Oc2nc(Nc3ccn(CCN(C)C)n3)nc3[nH]ccc23)c1` [Example 51], for which the IC50 on EGFR E746-A750 deletion is 0.137 µM; in assay [1], more than 10 µM; on EGFR L858R, 0.431 µM; at EGFR L858R+T790M, 0.035 µM.
The matching figures for `C=CC(=O)Nc1cccc(Oc2nc(Nc3cnn(CCN(C)C)c3)nc3[nH]cnc23)c1` [Example 53]: 0.663 µM, more than 10 µM, 1.14 µM and 0.355 µM.
`C=CC(=O)Nc1cccc(Oc2nc(Nc3cnn(C)c3)nc3[nH]cnc23)c1` [Example 54]: the IC50 at EGFR E746-A750 deletion was 0.192 µM; in assay [1] it was more than 10 µM; on EGFR L858R, 0.672 µM; on EGFR L858R+T790M, 0.168 µM.
`C=CC(=O)Nc1cccc(Oc2nc(Nc3cnn(CC(=O)N(C)C)c3)nc3[nH]ccc23)c1` [Example 58]: the IC50 in assay [1] was more than 10 µM; on EGFR L858R, more than 10 µM; at EGFR L858R+T790M it was 0.681 µM.
On to `C=CC(=O)Nc1cccc(Oc2nc(Nc3ccn(C)n3)nc3[nH]ccc23)c1F` [Example 59], for which the IC50 is 0.036 µM on EGFR E746-A750 deletion, more than 7.89 µM in assay [1], 0.078 µM on EGFR L858R and 0.007 µM at EGFR L858R+T790M.
As for `C=CC(=O)Nc1cccc(Oc2nc(Nc3cnn(C)c3)nc3[nH]cc(-c4cnn(C)c4)c23)c1` [Example 60], the IC50 amounted to 0.012 µM at EGFR E746-A750 deletion, 1.86 µM in assay [1], 0.023 µM on EGFR L858R and 0.016 µM at EGFR L858R+T790M.
Consider `C=CC(=O)N(C)C1CC(Oc2nc(Nc3cnn(C)c3)nc3[nH]cc(C#N)c23)C1` (stereo not drawn) [Example 61], for which the IC50 at EGFR E746-A750 deletion is 0.581 µM; in assay [1], more than 10 µM; at EGFR L858R it was 1.7 µM; on EGFR L858R+T790M, 0.189 µM.
For `C=CC(=O)N1C[C@@H]2[C@H](C1)[C@H]2Oc1nc(Nc2cnn(C)c2)nc2[nH]cc(Cl)c12` [Example 66], in that order: 0.309 µM, more than 10 µM, 0.12 µM and 0.009 µM.
On to `C=CC(=O)N1C[C@H](COc2nc(Nc3cnn([C@@H]4CCOC4)c3)nc3[nH]cc(Cl)c23)[C@@H](OC)C1` [Example 103], for which the IC50 is 0.512 µM on EGFR E746-A750 deletion, more than 10 µM in assay [1], 0.332 µM at EGFR L858R and 0.015 µM on EGFR L858R+T790M.
The matching figures for `C=CC(=O)Nc1cccc(Oc2nc(Nc3cc(OCCN(C)C)nn3C)nc3[nH]ccc23)c1F` [Example 104]: 0.11 µM, more than 10 µM, 0.123 µM and 0.025 µM.

Source of the values: US9040547B2, “Pyrrolopyrimidine and purine derivatives” (PFIZER INC., priority 2011, dated 2015).
